Data taken from PubChem BioAssay (NCI).
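48-hour exposure; five concentrations; linearly interpolated endpoints. TGI: concentration producing complete growth inhibition.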

Columns and labels:
Assay in all cases: NCI anticancer screen, dose series, 48 h
[1] = test system: UO-31 renal
[2] = test system: SK-MEL-5 melanoma
[3] = test system: SK-MEL-28 melanoma
[4] = test system: HCT-15 colon
[5] = test system: SF-539 CNS
[6] = test system: MDA-MB-435
[7] = test system: NCI-H226 lung
[8] = test system: OVCAR-8 ovarian
[9] = test system: ACHN renal
[10] = test system: SK-OV-3 ovarian
[11] = test system: MDA-N
[12] = test system: NCI/ADR-RES ovarian
[13] = test system: UACC-257 melanoma
[14] = test system: OVCAR-4 ovarian
[15] = test system: HL-60(TB) leukemia
[16] = test system: DU-145 prostate
[17] = test system: IGROV1 ovarian
[18] = test system: 786-0 renal
[19] = test system: CCRF-CEM leukemia
[20] = test system: COLO 205 colon
[21] = test system: SF-268 CNS
[22] = test system: NCI-H522 lung
[23] = test system: NCI-H23 lung
[24] = test system: PC-3 prostate
[25] = test system: SK-MEL-2 melanoma
[26] = test system: MALME-3M melanoma
[27] = test system: HCC-2998 colon
[28] = test system: HT29 colon
[29] = test system: T-47D breast
[30] = test system: MCF7 breast
[31] = test system: HS 578T breast
[32] = test system: U251 CNS
[33] = test system: SR leukemia
[34] = test system: UACC-62 melanoma
[35] = test system: SN12C renal
[36] = test system: SW-620 colon
[37] = test system: SNB-19 CNS
[38] = test system: LOX IMVI melanoma
[39] = test system: SNB-75 CNS
[40] = test system: HOP-92 NSCLC
[41] = test system: NCI-H460 lung
[42] = test system: KM12 colon
[43] = test system: MDA-MB-231 breast
[44] = test system: HCT-116 colon
[45] = test system: A498 renal
[46] = test system: SF-295 CNS
[47] = test system: A549 NSCLC
[48] = test system: BT-549 breast
[49] = test system: CAKI-1 renal
[50] = test system: TK-10 renal

Measured: TGI

c1cncc(CC2(c3cc4ccccc4[nH]3)OCCO2)c1
> 100 µM: all assays above
